Laboratory results from patent US20190256499A1, “SUBSTITUTED QUINOXALINE DERIVATIVES AS INHIBITORS OF PFKFB” (priority 2016, published 2019).
≈ marks a conversion by molar mass, not a printed value.

Assays:
[1] = target: T1, Human recombinant His-tagged PFKFB3 (Homo sapiens, UniProt Q16875); assay: PFKFB3 IC50 determination assay (modified ADP-Glo in vitro kinase assay); assay type: biochemical; conditions: human recombinant PFKFB3 25 nM, ATP 20 μM, fructose-6-phosphate 2 μM, 2 h, rt; read-out: PFKFB IC50
T1 construct: His; made in house
Procedure: In vitro kinase assay used to determine IC50 values for tested inhibitors is based on a modified ADP-Glo™ system (Promega) and consists of two parts:
1. Kinase reaction—performed in optimized conditions. At this step PFKFB3 phosphorylates its substrate fructose-6-phosphate using ATP as a source of phosphate to produce fructose-2,6-bisphosphate and ADP. Reaction is performed at Km values for ATP and substrate using optimized buffer composition and time of the reaction. Human recombinant His-tagged PFKFB3 (PFKFB3 BATCH II SEC) with confirmed activity is produced and purified in-house. 2. Detection of ADP as a product of the reaction using ADP-Glo™ system. This part is conducted by using the commercially available kit ADP-Glo™ Kinase Assay (Promega, cat. No# V9103) according to manufacturer's instruction, modified by 5× dilutions of assay reagents (both ADP-Glo™ Reagent and Kinase Detection Solution). Reproducibility and reliability of this modification is confirmed in an optimization process.
Test compounds are dissolved in DMSO and then transferred to the V-bottom 96-well plate. For IC50 determination ten 10× serial dilutions starting from 100 μM are prepared.
Two mixes are prepared on ice: Mix 1—containing appropriate kinase amount in 2× reaction buffer (100 mM TRIS pH 8.0) and Mix 2—containing 2.31× concentrated substrate (Fructose-6-phosphate) and ATP in MilliQ water. 15 μL per well of Mix 1 is transferred to assay wells of 96-well white plate. Next, 2 μl of 15× concentrated test compound in DMSO is added to Mix 1 for 20 min pre-incubation, followed by addition of Mix 2 (13 μl/well). Total reaction volume is 30 μL per well. Samples are tested in duplicates. Final concentration of DMSO in the reaction is 6.7%. Conditions needed for performing PFKFB3 (PFKFB3 BATCH II SEC) in vitro kinase assay are given below:
This protocol is based on Technical Bulletin, ADP-Glo™ Kinase Assay (Promega) and is adapted to 96-well plate containing 30 μL reaction mixture:
30 μL of 5× diluted ADP-Glo™ Reagent is added to each well of 96-well plate containing 30 μL of reaction mixture. The plate is incubated for 90 minutes on a shaker at rt. 60 μL of 5× diluted Kinase Detection Solution is added to each well of 96-well plate containing 60 μL of the solution (ratio of kinase reaction volume to ADP-Glo™ Reagent volume to Kinase Detection Solution volume is maintained at 1:1:2). Plate is incubated for 40 minutes on a shaker at rt, protected from light. Luminescence is measured in the plate reader Synergy 2 (BioTek).
Luminescent readouts for compounds tested in 10 concentrations (routinely from 100 μM to […], […] serial dilutions) in duplicates, as well as for positive control, are first normalized to no-substrate negative control by its subtraction. In the next step, % of normalized positive control is calculated for each data point and plotted against test compound concentration:
% of control—percent of positive control normalized to no-substrate negative control Lumcpd—luminescence of test compound Lumneg—luminescence of no-substrate negative control Lumpos—luminescence of positive control
IC50 parameter is determined by the GraphPad Prism 5.0 software [log(inhibitor) vs. response—Variable slope (four parameters)].

[2] = Microsomal stability (intrinsic clearance), mouse liver microsomes; assay type: in vitro ADME; parameters: microsomal CLint: dose or concentration left out as unconfirmed; conditions: mouse, liver microsomes, pH 7.4, mouse liver microsomes
Text: (§1) A microsomal stability assay is used to measure in vitro clearance (Clint). The assay involves measuring the rate of disappearance of a compound due to its intrinsic attitude to be metabolized (“intrinsic” meaning that the disappearance is not affected by other properties like permeability, binding etc. that play a role when quantifying in vivo clearance). The microsomal stability (intrinsic clearance, Clint) and thus metabolic stability is generally given as μl/min/mg protein. It can be visualized as the volume of solution that 1 mg of microsomes is able to clear of the compound in one minute.
(§2) A Tecan Genesis workstation (RSP 150/8) was used for to perform the microsomal incubations. Analysis was carried out using a Waters ACQUITY UPLC system coupled to an ABSciex API3000 mass spectrometer. Data analysis was performed using Assay Explorer (Symyx).
(§3) Mobile phases: A=0.1% formic acid in water; B=acetonitrile
(§4) Flow rate: 0.750 mL/min; Detection: ESI, MRM; Injection: 10 μL; Column temperature: 50° C.
(§5) Potassium phosphate buffer: 0.05 M potassium phosphate buffer pH 7.4 containing 1 mM MgCl2 NADPH (nicotinamide adenine dinucleotide phosphate): 22.5 mg NADPH-Na4 in 1.8 ml potassium phosphate buffer Acetonitrile: 50 Vol % acetonitrile (1 volume acetonitrile, 1 volume water) DMSO: 20 Vol % DMSO in water Stock solution of 20 mg/ml human or mouse liver microsomes (protein)/ml in phosphate buffer Stock solution of 10 mM compound in 100% DMSO

[3] = Microsomal stability (intrinsic clearance), human liver microsomes; assay type: in vitro ADME; parameters: microsomal CLint: dose or concentration left out as unconfirmed; conditions: human, liver microsomes, pH 7.4, human liver microsomes
Text: as §1, §2, §3, §4, §5

Kinetic solubility = assay type: physicochemical; conditions: phosphate buffer, pH 7.4, aqueous buffer, kinetic from dmso stock, phosphate buffer 20 mM pH 7.4, 2% DMSO, room temperature
Procedure: Kinetic solubility of compounds of the present invention were tested according the following procedure.
(a) Buffer Solution Phosphate Buffer 20 mM pH 7.4 is prepared using Sorensen Phosphate Buffer 0.2 M pH 7.4 (EMS) in a 1000 mL volumetric flask (b) 2% DMSO in Phosphate Buffer 20 mM pH 7.4 is prepared by using 1 mL Dimethylsulfoxide (Merck) and 49 ml Sorensen Phosphate Buffer 20 mM pH 7.4 (c) Acetonitrile/Methanole/Eluent A (1:1:2; v/v/v) is prepared by using 50 mL Acetonitrile (Merck), 50 mL Methanol (Merck) and 100 mL Eluent A (d) Eluent A is prepared by using 1 mL Formic Acid (Merck) and 999 mL Ultrapure water (e) Eluent B is prepared by using 1 mL Formic Acid (Merck) and 999 mL Acetonitrile (Merck) (f) Filtration plate: Millipore MultiScreen HTS HV (0.45 μm) 96 Well (Millipore)
98 μL buffer solution (a) is added into a well of a 96 well filtration plate (f). Then 2 μL of 10 mM test compound solution in DMSO (Remp tube) is added. The filtration plate is incubated at room temperature for 120 minutes while agitating at 250 rpm and centrifuged with the PP-Plate (g) as receiver plate below (2500 rpm, 3 min). The 50 μL of filtrate is taken from the receiver plate and mixed with 50 μL of 2% DMSO in buffer pH 7.4 solution (b) (dilution factor=2) in a HPLC Vial (i)+(j).
Standard is prepared by diluting 2 μL of the same 10 mM test compound solution (Remp tube) diluted with 198 μL Acetonitrile/Methanole/Eluent A (1:1:2; v/v/v) (c) to prepare a 100 μM standard solution in a HPLC Vial (i)+(j).
Column temperature: 37° C. Autosampler: room temperature (approx. 25° C.) Gradient programme: […]
Injection volume: 10 μL Wavelength: Suitable wavelength (maximum sensitivity) selected out of wavelength range of 190-400 nm using a DAD detector.
L [μg/mL]=(area sample*concentration standard*dilution factor sample)/(area standard*dilution factor standard)
S [mol/L]=[…] Calculation: […]

T1 sequence (Q16875 whole entry): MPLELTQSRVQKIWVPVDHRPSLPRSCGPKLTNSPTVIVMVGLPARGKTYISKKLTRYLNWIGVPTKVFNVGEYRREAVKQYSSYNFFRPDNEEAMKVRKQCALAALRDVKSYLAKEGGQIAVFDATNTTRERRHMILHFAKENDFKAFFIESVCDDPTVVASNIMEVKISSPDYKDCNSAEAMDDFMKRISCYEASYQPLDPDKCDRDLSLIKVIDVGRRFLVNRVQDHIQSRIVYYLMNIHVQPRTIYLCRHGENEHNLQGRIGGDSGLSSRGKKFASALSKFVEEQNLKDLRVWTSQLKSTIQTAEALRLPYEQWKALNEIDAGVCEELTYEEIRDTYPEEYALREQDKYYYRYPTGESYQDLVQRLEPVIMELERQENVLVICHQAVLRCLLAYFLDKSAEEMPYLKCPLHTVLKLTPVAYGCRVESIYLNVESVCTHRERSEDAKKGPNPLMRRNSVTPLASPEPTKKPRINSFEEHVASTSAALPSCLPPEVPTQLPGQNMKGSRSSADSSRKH

Row | SMILES | IC50 [1] [µM] | microsomal CLint [2] [µL/min/mg] | microsomal CLint [3] [µL/min/mg] | solubility kinetic at 120 min (Kinetic solubility) [µM]
1 | COc1ccc([C@@H](Nc2cc(-c3ccc4ccn(C)c4c3)c3nccnc3c2)c2cnnn2C)cn1 [Comparative Example 3, N—[(R)-(6-methoxypyridin-3-yl)(1-methyl-1H-1,2,3-triazol-5-yl)methyl]-8-(1-methyl-1H-indol-6-yl)quinoxalin-6-amine, reference compound] | 0.53 | 287 | 267 | 22 (≈ 10.5 µg/mL)
2 | Cn1ccc2ccc(-c3cc(NC(c4cccnc4)c4ccc(=O)[nH]n4)cc4nccnc34)cc21 (centres unmarked) [Example 1, 6-{[8-(1-Methyl-1H-indol-6-yl)-quinoxalin-6-ylamino]-pyridin-3-yl-methyl}-2H-pyridazin-3-one] | 0.032 | 122 | 78 | 69 (≈ 31.7 µg/mL)
